The assay deals with T1, beta-amyloid 42 (Aβ42) (Homo sapiens, UniProt P05067).
T1 construct: Beta-amyloid 42 (Aβ42) was dissolved in dimethylsulfoxide (DMSO)
The assay is described as follows: Inhibitory effect on the formation of beta-amyloid fibrils in vitro (ThT fluorescence assay). It counts as biochemical. The settings on record: for inhibition at 10 µM: read-out: % Inhibition (10 μM); for IC50: In vitro ThT analysis (Aβ42: 25 μM); for % inhibition against the beta-amyloid 42 formation compared with curcumin: Tables 1 to 6, relative to curcumin. How it is done:
In order to investigate the inhibitory effect on the formation of beta-amyloid fibrils, the inventive compounds were examined as follows:
Beta-amyloid 42 (Aβ42) was dissolved in dimethylsulfoxide (DMSO) to form a […] Aβ42 stock solution. In addition, ThT (thioflavin T) was dissolved in distilled water to a concentration of 1 mM and subsequently diluted with 50 mM glycin buffer (pH 8.5) to yield a 5 μM ThT stock solution.
45 μL of PBS (phosphate buffer saline, pH 7.4) was added to each of a 96 well fluorescence microplate (white, F-bottom). 5 μL of the 250 μM Aβ42 stock solution was added to each well. The final concentration of each compound obtained in Examples was in a range of 10 to 0.001 μM by adding 2 μL of a solution, which is prepared by dissolving the subject compounds obtained in Examples in DMSO, to each well. At this time, the final concentration of Aβ42 in each well was 25 μM. The plate was then incubated at room temperature for 1 hr, and 150 μL of the 5 μM ThT stock solution was added to each well.
The fluorescence intensity of each well was determined with the multi label fluorescence counter (LS-55 Luminescence spectrometer, Perkin Elmer) at an excitation wavelength of 450 nm (excitation slit width: 10 nm) and an emission wavelength of 482 nm (emission slit width: 10 nm), while adjusting counting time to 1 second. The control group was prepared by adding PBS solution, Aβ42 and DMSO, without adding the inventive compound. % Inhibition on the formation of beta-amyloid fibrils was calculated in accordance with the following equation and IC5O was calculated by using GraphPad Prism version 4.03 Program.
% Inhibition=[1−(C−D)/(A−B)]×100 Equation 1%
A (control group): fluorescence intensity in a group treated with PBS solution, Aβ42, and DMSO
B (blank): fluorescence intensity in a group treated with PBS solution and DMSO
C (experimental group): fluorescence intensity in a group treated with PBS solution, Aβ42, DMSO, and the inventive compound
D (compensation value to the experimental group): fluorescence intensity in a group treated with PBS solution, DMSO, and the inventive compound

Where [1] appears, read: 10 μM compound, Aβ42 25 μM, experiment of Table 3.
The mark [2] stands for this setting: 10 μM compound, Aβ42 25 μM, experiment of Table 7.
Setting [3] is: 10 μM compound, Aβ42 25 μM, experiment of Table 5.
Setting [4] is: 10 μM compound, Aβ42 25 μM, experiment of Table 4.
Setting [5] is: 10 μM compound, Aβ42 25 μM, experiment of Table 6.
The mark [6] stands for this setting: 10 μM compound, Aβ42 25 μM, experiment of Table 2.

Structures can show the parent of a compound that is named as a salt. Where two headings read alike, the source gives them in different places.

T1 sequence (P05067 672-713 limits assumed): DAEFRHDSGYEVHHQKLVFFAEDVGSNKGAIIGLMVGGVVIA

In the case of “5-methyl-2-(aminostyryl)benzofuran trifluoroacetate [Compound 39]”, under setting [1], the “% Inhibition (10 μM)” value was determined as 60.23%.

As to `CN(C)c1ncc(/C=C/c2nc3ccccc3o2)s1` [Comparative Example 1, reference compound], under setting [2], the inhibition – broadly, the percentage by which the read-out fell short of the control – at 10 µM was 63.4%. Moreover, 3400 nM corresponded to half-maximal inhibition (experiment of Table 7) (IC50).

With `CN(C)c1ccc(/C=C/c2nc3ccccc3s2)cc1` [Comparative Example 2, 2-(4-dimethylaminophenylethenyl)benzothiazole, reference compound], the inhibition at 10 µM under setting [2] was 25.7%. Moreover, the IC50 – broadly, the concentration that gives 50% inhibition – (experiment of Table 7) is 31800 nM.

The compound `CN(C)c1ccc(C=Cc2cc3ccccc3o2)cc1` [Compound 1, 2-(4-dimethylaminostyryl)benzofuran] came in with an IC50 (experiment of Table 1) of 2300 nM.

Regarding `COc1ccc2oc(C=Cc3ccc(N(C)C)cc3)cc2c1` [Compound 2, 5-Methoxy-2-(4-dimethylaminostyryl)benzofuran], half-maximal inhibition (experiment of Table 1) (IC50) required 810 nM.

Take `CN(C)c1ccc(C=Cc2cc3cc(F)ccc3o2)cc1` [Compound 5, 5-fluoro-2-(4-dimethylaminostyryl)benzofuran]: the IC50 (experiment of Table 1) is 1980 nM.

Take `CN(C)c1ccc(C=Cc2cc3cc(Cl)ccc3o2)cc1` [Compound 6, 5-chloro-2-(4-dimethylaminostyryl)benzofuran]: the “% inhibition against the beta-amyloid 42 formation compared with curcumin” value (from here on “% inhibition … with curcumin”) is given as “superior % inhibition”. For the same compound, half-maximal inhibition (experiment of Table 1) (IC50) required 199 nM.

In the case of `CN(C)c1ccc(C=Cc2cc3cc(Br)ccc3o2)cc1` [Compound 7, 5-bromo-2-(4-dimethylaminostyryl)benzofuran], the “% inhibition … with curcumin” value is “superior % inhibition”. This compound also yielded an IC50 (experiment of Table 1) of 470 nM.

As to `CN(C)c1ccc(C=Cc2cc3cc(I)ccc3o2)cc1` [Compound 8, 5-iodo-2-(4-dimethylaminostyryl)benzofuran], the “% inhibition … with curcumin” value was “superior % inhibition”. This compound also registered an IC50 (experiment of Table 1) of 168 nM.

Compound `CN(C)c1ccc(C=Cc2cc3ccc(O)cc3o2)cc1` [Compound 10, 6-hydroxy-2-(4-dimethylaminostyryl)benzofuran] had an IC50 (experiment of Table 1) of 3620 nM.

Under “experiment of Table 1”, `Cc1ccc2cc(C=Cc3ccc(N(C)C)cc3)oc2c1` [Compound 11, 6-methyl-2-(4-dimethylaminostyryl)benzofuran] gave an IC50 of 3440 nM.

`CN(C)c1ccc(C=Cc2cc3ccc(F)cc3o2)cc1` [Compound 12, 6-fluoro-2-(4-dimethylaminostyryl)benzofuran] showed an IC50 (experiment of Table 1) of 2190 nM.

`CN(C)c1ccc(C=Cc2cc3ccc(Cl)cc3o2)cc1` [Compound 13, 6-chloro-2-(4-dimethylaminostyryl)benzofuran] yielded an IC50 (experiment of Table 1) of 3210 nM.

Under “experiment of Table 1”, `CN(C)c1ccc(C=Cc2cc3ccc(Br)cc3o2)cc1` [Compound 14, 6-bromo-2-(4-dimethylaminostyryl)benzofuran] displayed an IC50 of 1340 nM.

Regarding `CN(C)c1ccc(C=Cc2cc3ccc(I)cc3o2)cc1` [Compound 15, 6-iodo-2-(4-dimethylaminostyryl)benzofuran], the IC50 (experiment of Table 1) came out at 2800 nM.

For `COc1ccc2oc(C=Cc3ccc(N)cc3)cc2c1` [Compound 16, 5-methoxy-2-(4-aminostyryl)benzofuran], under “experiment of Table 1”, inhibition was half-maximal at 820 nM (IC50).

For `Nc1ccc(C=Cc2cc3cc(O)ccc3o2)cc1` [Compound 18, 5-hydroxy-2-(4-aminostyryl)benzofuran hydrochloride], for the setting “experiment of Table 1”, the IC50 worked out at 2950 nM.

Take `CNc1ccc(C=Cc2cc3cc(O)ccc3o2)cc1` [Compound 19, 5-hydroxy-2-(4-methylaminostyryl)benzofuran hydrochloride]: the IC50 (experiment of Table 1) was 2160 nM.

Under “experiment of Table 1”, `COc1ccc2cc(C=Cc3ccc(N)cc3)oc2c1` [Compound 20, 6-methoxy-2-(4-aminostyryl)benzofuran] showed an IC50 of 5440 nM.

On to `CNc1ccc(C=Cc2cc3ccc(OC)cc3o2)cc1` [Compound 21, 6-methoxy-2-(4-methylaminostyryl)benzofuran], for which, for the setting “experiment of Table 1”, the IC50 was determined as 800 nM.

As for `COc1ccc2cc(C=Cc3ccc(N(C)C)c(OC)c3)oc2c1` [Compound 23, 6-methoxy-2-(3-methoxy-4-dimethylaminostyryl)benzofuran], the “% inhibition … with curcumin” value was “superior % inhibition”. The same compound returned an IC50 (experiment of Table 1) of 528 nM.

As for `Nc1ccc(C=Cc2cc3ccccc3o2)cc1` [Compound 24, 2-(4-aminostyryl)benzofuran trifluoroacetate], the inhibition at 10 µM was 70.7%.

Turning to `CNc1ccc(C=Cc2cc3ccccc3o2)cc1` [Compound 25, 2-(4-methylaminostyryl)benzofuran trifluoroacetate], the inhibition at 10 µM is 59%.

Consider `CCN(CC)c1ccc(C=Cc2cc3ccccc3o2)cc1` [Compound 26, 2-(4-diethylaminostyryl)benzofuran], for which the inhibition at 10 µM under setting [1] amounted to 4.54%.

Turning to `COc1ccc(C=Cc2cc3ccccc3o2)cc1` [Compound 27, 2-(4-methoxystyryl)benzofuran], the inhibition at 10 µM under setting [1] came to 58.3%.

Regarding `COc1ccc(C=Cc2cc3ccccc3o2)cc1OC` [Compound 28, 2-(3,4-dimethoxystyryl)benzofuran], the inhibition at 10 µM under setting [3] was found to be 67.4%. Under “experiment of Table 5”, this compound showed an IC50 of 3290 nM.

As for `Nc1ccc(C=Cc2cc3cc(Cl)ccc3o2)cc1` [Compound 29, 5-chloro-2-(4-aminostyryl)benzofuran], the inhibition at 10 µM under setting [4] was 82.8%. Moreover, the midpoint of inhibition (experiment of Table 4), the IC50, lay at 1990 nM.

With `CNc1ccc(C=Cc2cc3cc(Cl)ccc3o2)cc1` [Compound 30, 5-chloro-2-(4-methylaminostyryl)benzofuran], the “% inhibition … with curcumin” value is “superior % inhibition”. Besides, the inhibition at 10 µM under setting [5] came out at 68.4%. Under “experiment of Table 6”, this compound showed an IC50 of 2170 nM.

On to `CCN(CC)c1ccc(C=Cc2cc3cc(Cl)ccc3o2)cc1` [Compound 31, 5-chloro-2-(4-diethylaminostyryl)benzofuran], for which, under setting [4], the inhibition at 10 µM was determined as 37.9%. Moreover, the IC50 (experiment of Table 4) was 963 nM.

For the compound `CNc1ccc(C=Cc2cc3cc(Cl)ccc3o2)cc1OC` [Compound 32, 5-chloro-2-(3-methoxy-4-methylaminostyryl)benzofuran], the inhibition at 10 µM under setting [3] was determined as 47.6%.

For `COc1ccc(C=Cc2cc3cc(Cl)ccc3o2)cc1` [Compound 33, 5-chloro-2-(4-methoxystyryl)benzofuran], the inhibition at 10 µM under setting [6] worked out at 51.8%. Besides, the IC50 (experiment of Table 2) is more than 100000 nM.

Take `COc1ccc(C=Cc2cc3cc(Cl)ccc3o2)cc1OC` [Compound 34, 5-chloro-2-(3,4-dimethoxystyryl)benzofuran]: the “% inhibition … with curcumin” value is on record as “superior % inhibition”. For the same compound, the inhibition at 10 µM under setting [6] was determined as 72.5%. Also, the IC50 (experiment of Table 2) turned out to be 181 nM.

Consider `CCN(CC)c1ccc(C=Cc2cc3cc(OC)ccc3o2)cc1` [Compound 35, 5-methoxy-2-(4-diethylaminostyryl)benzofuran], for which, under setting [6], the inhibition at 10 µM came to 55.1%. Where the note is “experiment of Table 2”, half-maximal inhibition (IC50) required 1180 nM.

Take `CNc1ccc(C=Cc2cc3cc(OC)ccc3o2)cc1OC` [Compound 36, 5-methoxy-2-(3-methoxy-4-methylaminostyryl)benzofuran]: the inhibition at 10 µM under setting [3] was 24.5%.

In the case of `COc1ccc(C=Cc2cc3cc(OC)ccc3o2)cc1` [Compound 37, 5-methoxy-2-(4-methoxystyryl)benzofuran], the “% inhibition … with curcumin” value is “superior % inhibition”. Also, the inhibition at 10 µM under setting [6] was determined as 67.9%. The same compound displayed an IC50 (experiment of Table 2) of 707 nM.

For the compound `COc1ccc2oc(C=Cc3ccc(OC)c(OC)c3)cc2c1` [Compound 38, 5-methoxy-2-(3,4-dimethoxystyryl)benzofuran], under setting [6], the inhibition at 10 µM came to 81.1%. This compound also had an IC50 (experiment of Table 2) of 1560 nM.

Regarding `CNc1ccc(C=Cc2cc3cc(C)ccc3o2)cc1` [Compound 40, 5-methyl-2-(4-methylaminostyryl)benzofuran trifluoroacetate], the inhibition at 10 µM was 70.2% under setting [1] and 73.5% under setting [5]. Further, where the note is “experiment of Table 6”, the IC50 was found to be 5050 nM.

`CCN(CC)c1ccc(C=Cc2cc3cc(C)ccc3o2)cc1` [Compound 41, 5-methyl-2-(4-diethylaminostyryl)benzofuran]: the inhibition at 10 µM under setting [1] was less than 1%.

The record behind these values is patent publication US20110124888A1, “STYRYLBENZOFURAN DERIVATIVES AS INHIBITORS FOR BETA-AMYLOID FIBRIL FORMATION AND PREPARATION METHOD THEREOF” (Korea Institute of Science and Technology, priority 2008, published 2011).
